Earlier results on one molecule are cited in patent US20230071557A1, “STABLE PHARMACEUTICAL COMPOSITIONS OF ROPINIROLE” (ORION CORPORATION, priority 2020, published 2023).

This data set concerns dogs. The following applies: aqueous eye drop solution comprising 10 or 40 mg/ml of ropinirole hydrochloride.

Where a name gives a salt, the structure may show the parent alone.

Take `CCCN(CCC)CCc1cccc2c1CC(=O)N2` [ropinirole hydrochloride]: the “Vomiting (emesis) in dogs” value is “produced vomiting rapidly and consistently”.
